Earlier results as cited in US20030077264A1, “Antimicrobial blood treatment using allicin and related compounds” (priority 2001, published 2003).

Legend:
[1] = buffer
[2] = tested on: Helicobacter pylori; settings: in medium

For “thio-2-propene-1-sulfinic acid S-allyl ester [Allicin]”, the half-life [1] is given as 30 to 40 days and the minimum inhibitory concentration [2] is given as 4.0 µg/mL.
